Results published in patent publication US4935419A, “Novel 1-piperazinecarboxamide derivatives” (priority 1983, dated 1990).
Structures can show the parent of a compound that is named as a salt. Where two headings read alike, the source gives them in different places.

Experiments:
[1] = tested on: female NMRI mice (writhing behaviour); assay: Writhing test (acetic acid); assay type: in vivo; conditions: Mus musculus, sc, 20 minutes before acetic acid (0.5%, 15 ml/kg i.p.), dose blocking writhing in 50% of the animals
Description: The writhing test is a frequently used test of analgetic properties (Witkin, L. B. et al., J. Pharmacol. Exp. Ther. 133, 400 (1961)). If acetic acid (0.5%, 15 ml/kg) is injected intraperitoneally in mice (NMRI) they will without exception develop a writhing behaviour characterized by stretching their hind legs. The drugs to be tested were administered subcutaneously to 6 female mice at each dose 20 minutes before the injection of the acetic acid. After 10 minutes the behaviour of the mice was studied in 5 minutes. The ED50 -value is the dose blocking the writhing behaviour in 50% of the animals during the 5 minutes study period. [drawing 12]

[2] = tested on: female rats (conditioned avoidance response); assay: Conditioned avoidance response (CAR); assay type: in vivo; conditions: Rattus norvegicus, sc, 1.5 h, read-out: ED50, conditioned avoidance response
Description: Test 2: Conditioned avoidance response (CAR)
The effect of the test compounds on CAR was evaluated in a shuttle box, manufactured by Ugo Basile, Italy. The female rats, weighing 150 g, were trained to avoid an electric shock (unconditioned stimulus--US) by escaping from one compartment to the other when the light from a 15W lamp is switched on (conditioned stimulus--CS). When they responded to the CS, a conditioned response (CR) was considered to have been elicited. Rats showing a stable CR of more than 80% after a three weeks' training program were used in the experiments. Groups of six rats were subcutaneously administered with various doses of the test compounds. 11/2 hours after the administration each rat was placed in the experimental box and the effect on CR was evaluated. ED50 -values refer to the dose inhibiting CR in 50% of the animals. The mechanisms regulating conditioned responses are very complex. Both catecholaminergic and hormonal factors are of importance.

[3] = tested on: male NMRI mice (isolation induced aggressive behaviour); assay: Isolation induced aggressive behaviour test; assay type: in vivo; conditions: Mus musculus, sc, read-out: ED50, isolation induced aggressive behaviour test
From the text: Test 1: Isolation induced aggressive behaviour test
Male mice subjected to prolonged isolation develop aggressive behaviour against each other when paired (Yen, C. Y. et al., Arch. Int. Pharmacodyn. 123, 179, (1959): Valzelli, L., Adv. Pharmacol. 5, 79 (1967)). […] The clinical correlation of this test indicates tranquillizing and anxiolytic activities as well as antiaggressive properties as such (Duncan, R. L. et al., J Med. Chem. 13, 1 (1970)).
This type of aggression is interesting because it is known that this kind of emotional behaviour might be located in limbic structures in the brain (MacLean, P.D., Psychosom. Med. 11, 338 (1949)).
Every week male NMRI mice, weighing 20-22 g, were isolated in Makrolon cages for three weeks with diet and water ad libitum. A piece of cardboard was placed between the cages to prevent visual contact.
To test aggressiveness the mice were paired in a neutral area, a beaker (14 cm high and diameter 14 cm). A pair is considered aggressive if both the animals show clear signs of fighting within 5 minutes. This fighting is characterized by biting and vocalization. […] Animals showing no aggression are discarded. […] The test substance is administered s.c. (0.2-0.4 ml/20 g). The mice are paired 0.5 hour after the injection for trials of 5 minutes duration.
The ED50 -value (mg/kg) reported is the dose inhibiting aggressive behaviour among 50 per cent of the pairs 0.5 hour after drug administration.

[4] = tested on: male NMRI mice (isolation induced aggressive behaviour); conditions: result in words; clinically used drugs; cited from earlier work
[5] = s.c., rats, dose inhibiting CR in 50% of the animals, 1 1/2 hours after administration
[6] = mice, dose inhibiting aggressive behaviour among 50 per cent of the pairs 0.5 hour after administration

CCNC(=O)N1CCN(CCCC(=O)c2ccc(F)cc2)CC1 [1:3, 4-.vertline.4-(p-fluorophenyl)-4-oxobutyl.vertline.-N-ethyl-1-piperazinecarboxamide hydrochloride]
ED50 [1]: 1.9 mg/kg
ED50 [2, 5]: 12 mg/kg
ED50 [3, 6]: 1.7 mg/kg

CCNC(=O)N1CCN(CCCCc2ccc(F)cc2)CC1 [1:15, 4-.vertline.4-(p-fluorophenyl)butyl.vertline.-N-ethyl-1-piperazinecarboxamide hydrochloride]
ED50 [1]: 3.7 mg/kg
ED50 [2, 5]: 7.9 mg/kg
ED50 [3, 6]: 3.5 mg/kg

CN(C)CCC=C1c2ccccc2CCc2ccccc21 [Amitriptyline]
ED50 [3, 6]: 5 mg/kg

CN(C)CCCN1c2ccccc2Sc2ccc(Cl)cc21 [Chlorpromazine]
ED50 [2]: 3.5 mg/kg
ED50 ([3]; 0.5 h): 1.4 mg/kg

CN1C(=O)CN=C(c2ccccc2)c2cc(Cl)ccc21 [Diazepam]
activity on isolation induced aggressive behaviour, known drugs [4]: active on this kind of aggressive behaviour

CSc1ccc2c(c1)N(CCC1CCCCN1C)c1ccccc1S2 (stereo not drawn) [Thioridazine]
ED50 [2, 5]: 41 mg/kg
ED50 [3, 6]: 5 mg/kg
